Experimental findings from US9499823B2, “Constructs expressing chimeric receptors and use thereof for the controlled activation of defence response to pathogens in plants” (priority 2009, dated 2016) are described below.

The subject of data set [1] is RetOx, CYP81F2 and PAD3 transcripts. Description: Elicitor-induced accumulation of Ret-Ox, CYP81F2 and PAD3 transcripts, semi-quantitative PCR. The format is cell-based, Arabidopsis thaliana. Conditions: flg22 1 μM, 30 minutes. The protocol: B) Elicitor induced accumulation of Ret-Ox, CYP81F2 and PAD3 transcripts analysed by semi-quantitative PCR, using the UBQ5 gene for normalization. Leaves were incubated with water, flg22 (1 μM), elfl8 (10 μM) or a generic peptide (10 μM) for 30 minutes. The experiment was repeated three times with similar results. The same experiment was performed in a second independent transgenic line expressing eJMC with similar results.
3,3′-diaminobenzidine (DAB) staining, callose deposition and gene resistance analysis were assayed as described (Galletti et al., 2008). For measuring active oxygen species released by tobacco agroinfiltrated plants after elicitor treatment, the authors used a modified luminol-dependent assay (Gomez et al., 1999). Slices, corresponding to approximately 30 mg fresh weight, were transferred to assay tubes containing 1 μM flg22 or 10 μM elfl8 in aqueous solution supplied with 40 μM luminol (SIGMA). Chemo-luminescence was measured in a liquid scintillation counter (LS-6500, Beckman) after 5 and 15 min upon addition of elicitors.
Fluorescent eJMC and FLS2 were also stably expressed in transgenic Arabidopsis ecotype Wassilewskija (Ws-0), which carries EFR but lacks a flg22 perception system (Gomez-Gomez et al., 1999, Bauer et al., 2001). Transformed T1 plants expressing the proteins, named eJMC plants and FLS2 plants, respectively, were selected by confocal microscopy analysis of adult rosette leaves. […] Fluorescence was detected only in adult rosette leaves, likely due to a low expression level of the receptor at the different developmental stages.

For data set [2], the system named is ethylene biosynthesis in tobacco leaves. Description: Induction of ethylene biosynthesis in agroinfiltrated tobacco leaf explants. It counts as cell-based, Nicotiana tabacum. Conditions: flg22, 2 h; compared with EFR-expressing explants as negative controls. The protocol: F) Induction of ethylene biosynthesis in agroinfiltrated tobacco leaves expressing the fluorescent EFR, FLS2, TMC, eJMC and eJMC^Y859A. NC: negative control, represented by agroinfiltrated leaf tissues expressing fluorescent EFR or FLS2 and elicited with flg22 or elfl8, respectively. Results are averages±standard error (n=3).
Excised infiltrated leaf sectors were stimulated for 2 h with water or the elicitor ([…] and 100 μg/ml for OGs). Values are means±s.e.m. (N=3).
E) Induction of ethylene biosynthesis in agroinfiltrated tobacco leaves expressing EFR, WAK1, WEG and EWAK. Each construct was stimulated for 2 h with elfl8 (10 μM) or OGs (100 μg/mL). NC: negative control, represented by agroinfiltrated leaf tissue expressing EFR or FLS2 when OGs or elfl8, respectively, were used for elicitation. Error bars indicate the standard error of three independent replicates.
(A) Induction of ethylene biosynthesis in agroinfiltrated tobacco explants expressing EFR, WAK1, WEG and EWAK. […] Agroinfiltrated leaf tissues expressing EFR or WEG and elicited with OGs or elfl8 respectively, represented our negative control. Values are means±s.e.m. (N=3). (B) Elicitor-induced gene expression in untransformed Col-0 and Col-0 efr plants, and in transgenic Arabidopsis Col-0 efr plants stably expressing WEG. Accumulation of At3g22270 and At4g37640 transcripts was analysed by semi-quantitative PCR, using the UBQ5 gene for normalization. Adult leaves were syringe-infiltrated with water, OGs (25 μg/ml) or elfl8 (10 μM) for 3 h. The experiment was repeated three times with similar results. The same experiment was performed in a second independent transgenic line expressing WEG with similar results.
Approximately 150 mg of tobacco agroinfiltrated leaf were cut in small slices and extensively washed with sterile distilled water. The explants were placed in sealed 10 mL flasks containing 2 mL of sterile water alone or supplemented with 100 mg L^−1 OGs, or 1 μM flg22 or 10 μM elfl8. 450 μl headspace samples were withdrawn from the vial after 2 h treatment and analyzed by gas chromatography-mass spectrometry using an Agilent 6850A gas chromatograph coupled to a 5973N quadrupole mass selective detector (Agilent Technologies, Palo Alto, Calif., USA). Chromatographic separations were carried out an HP Plot-Q fused-silica capillary column (30 m×0.32 mm i.d.) coated with polystyrene-divinylbenzene (film thickness 0.20 μm) as stationary phase. Injection mode: splitless at a temperature of 220° C. The initial temperature of the oven was held at 50° C. for 8 min then ramped to 220° C. at a rate of 15° C./min and held for 5 min. Helium was used as carrier gas at a constant flow of 1.0 ml/min. Mass spectra were collected both in full scan and in SIM mode monitoring the ions m/z m/z 26, m/z 27 and m/z 28 (ionization energy 70 eV; ion source 280° C.; ion source vacuum 10^−5 Torr).

Data set [3] deals with agroinfiltrated leaves of N. tabacum ecotype SR1. Description: Receptor internalization in agroinfiltrated tobacco leaves. It counts as cell-based, Nicotiana tabacum. The conditions noted are these: 10 μM flg22, 30 min. The protocol: E) Relative variation of fluorescence in agroinfiltrated tobacco leaves expressing EFR, FLS2, eJMC and TMC and treated with 10 μM elfl8 or 10 μM flg22 for 30 min.
(§1) The GFP-dependent fluorescence was monitored from 2 to 4 days post infection in cells of the lower epidermis. Pieces of leaf were randomly cut from the infected area and mounted in water or supplemented with elicitors for microscopic observations. Flg22 and elfl8 were used at 10 μM while oligosaccharides were used at 100 μg/mL. Materials were analyzed using a Leica DM IRE epifluorescence microscope equipped with a digital cooled camera (DFC350FX R2; Leica). GFP fluorescence was excited with a 488-nm laser line, and emitted fluorescence was collected at 543-nm. The Leica Confocal Software and Adobe Photoshop 5.0 were used for post-acquisition image processing. All samples were imaged with the 40× or 100× oil objectives. Pictures were taken in Kahlman frame giving an average of 16 scans for the dynamics of internalization and 4 scans for the cellular localizations.
The behaviour of TMC and eJMC upon treatment with flg22 and elfl8 was also analysed in agroinfiltrated leaves of N. tabacum ecotype SR1 and compared to that of EFR and FLS2. […] Instead, in the eJMC expressing plants fluorescence decreased within 10-30 min after stimulation with flg22, at an extent similar to that observed in Arabidopsis, i.e. by 25% and 35% after 20 min and 30 min, respectively (FIG. 3E).

For data set [4], the system named is agroinfiltrated Arabidopsis thaliana Col-0 leaves. Description: Receptor internalization: decrease of GFP fluorescence by confocal microscopy in agroinfiltrated Arabidopsis Col-0 leaves. The format is cell-based. The conditions noted are these: 10 μM flg22, 30 min. The protocol:
PCR templates are shown in bold. Primers listed in Table 1 are shown in capital letters. Stable transgenic lines were generated using the standard A. tumefaciens-mediated gene transfer procedure of inflorescence infiltration (Bent et al., 2006). Independent transformed plant pools were kept separate for the selection of independent transgenic lines based on their phosphinotrycin resistance and leaves GFP fluorescence. Tobacco and Arabidopsis transient transgenic lines were prepared by infiltrating with Agrobacterium tumefaciens carrying the individual constructs, as described by Reca (2008).
as §1, with “localizations. […]” for “localizations.”
The dynamics of fluorescence localization upon treatment with elicitors was then studied. Whereas endocytosis of surface receptors upon ligand binding often occurs in animals (Warren and Landgraf 2006), this mechanism in plants has emerged only recently (Geldner & Robatzek 2008) and, so far, FLS2 is the only receptor involved in plant immunity shown to undergo endocytosis upon the specific stimulation with flg22 (Robatzek et al., 2006). The authors tested the effect of flg22 and elf 18, i.e. the peptides specifically recognized by FLS2 and EFR respectively, and oligogalacturonides with a degree of polymerization between 10 and 16 (OGs), which act as general elicitors of defense responses in several plants. Explants from agroinfiltrated Arabidopsis leaves at 2 dpi were treated with elicitors and then subjected to confocal microscopy analysis. […] Instead, when eJMC-expressing explants were stimulated with flg22, the fluorescent signal decreased by 25% and 40% after 20 min and 30 min, respectively (FIG. 3B).
The first chimeric receptor, indicated as WEG, comprised the WAK1 ectodomain fused to the TM-iJM-kinase portion of EFR and was designed to test the ability of the WAK1 ectodomain to perceive OGs and transmit the signal inside the cell. […] Both WEG and EWAK as well as WAK1 were fused to GFP and used in agroinfiltration experiments (FIG. 5A). […] Western-blot analysis using GFP-specific antibodies on proteins from IWF and microsomal fractions prepared from infiltrated leaves confirmed the plasma membrane localization of both fluorescent chimeras (FIG. 5D). The effect of OGs on the internalization of WEG was followed in agroinfiltrated Arabidopsis Col-0 leaves. […] This might be due to the inability of WEG to uncouple its ectodomain from pectins, since it is known that WAK1 strongly binds to pectin and only denaturing treatments allow its separation from cell wall (He et al., 1996). On the other hand, affinity studies have shown that WAK1 interact with cell wall pectins that are in a Ca^2+-induced conformation (i.e. the structures called “egg boxes”) and that the interaction is disrupted by adding a chelating agent such as EDTA (Decreux et al., 2005; Cabrera et al., 2008). The authors therefore tested whether OG-induced internalization of WEG occurred in the presence of 5 mM EDTA. WEG-expressing agroinfiltrated leaves were syringe-infiltrated with OGs and after 30 min the tissues were mounted in the presence of EDTA for confocal microscopy analysis. […]

Where no end group is shown, it is not given here.

Consider QRLSTGSRINSAKDDAAGLQIA [flg22], for which the “expression of RetOx, CYP81F2 and PAD3 in untransformed Ws-0 plants” value in data set [1] was “not in the untransformed plants”.
Take “TMC: chimera (Ala817FLS2-Leu661EFR): FLS2 LRR, eJM and N-terminal half of TM fused to C-terminal half of EFR TM, iJM and kinase”: the “ethylene release induced by flg22” value in data set [2] is “only a weak response”. In addition, the “internalization after stimulation with flg22” value in data set [3] is “Neither FLS2 nor TMC underwent internalization”. For the same substance, the “decrease in fluorescence upon treatment with flg22” value in data set [4] is “did not show any decrease in fluorescence”.
